Experimental data taken from patent US4224326A, “Immunosuppressive agents” (Eli Lilly and Company, priority 1978, dated 1980).
Like-named read-outs stand apart in the source and are kept apart here.

What was measured:
GVH reaction = assay: Graft-versus-host (GVH) reaction, spleen weight; assay type: in vivo, mouse (C57BL spleen cells into C57BL×C3H F1 hybrid)
Procedure: In this test, parental (C57BL) mouse spleen cells are injected into mice of an F1 hybrid strain (C57BL×C3H). […] As a consequence, the recipient's spleen becomes enlarged. Immunosuppression prevents or reduces this enlargement. Thus, spleen weights provide a measure of the GVH reaction and its reduction under immunosuppression. A modification of Simonsen's original procedure (Ann. N.Y. Acad. Sci. 73:834, 1958) was employed. Large crops of spleen cells were obtained, without the generally employed manual teasing of spleens, by using Waring blendors with the cutting blades reversed. Two six-second blending periods buffeted the spleens (batches of 25 C57BL spleens in 25-ml saline) sufficiently to free the cells from the connective tissue. The latter was removed by filtration through several thicknesses of cheesecloth. Cell suspensions prepared in this fashion were standardized, by means of Levy-Hausser chamber counts, to contain 6×10^8 nucleated cells per ml. Groups of ten 16-18 gram C57BL×C3H mice were injected intraperitoneally with 1 ml of the donor cell suspension. Treatment, by the oral or subcutaneous route in 0.2 ml, was instituted 3 days prior to cell injection and continued daily for 13 days. Control animals received only cells and vehicle. The spleens were removed and weighed 10 days following cell injection. The results were expressed as mg spleen/gram body weight. Since the injection of syngeneic, i.e., C57BL×C3H, cells into the recipient mice produces a minor degree of splenomegaly, spleen weights of such animals were used to define 100% suppression of the GVH component in calculating percents of inhibition produced by the immunosuppressive compounds.

[1] = test system: antibody (hemagglutinin) production against sheep red blood cells; assay: Mouse hemagglutinin assay, oral administration (antibody reduction); assay type: in vivo, mouse (male, random-bred, Swiss); details: Erythrocyte, nine daily doses, pooled sera of 5 mice, read-out: minimum effective dose (MED), lowest dose producing 75 percent or greater antibody reduction
Procedure: (§1) Groups of five 20-gram, male, random-bred, Swiss mice received intravenous injections of 5×10^7 sheep red blood cells. The cells for these injections were prepared from lamb's blood (collected in Alsever's solution) by washing three times with 0.85 percent saline and resuspending in 0.85 percent saline. Nine daily doses of each compound to be tested, solubilized in polyethylene glycol 400, were administered orally in 0.1 ml. doses, commencing three days prior to red blood cell injection. Several dose levels of each compound were employed, at 2-fold increments. A control group of mice, receiving a red blood cell injection and nine daily doses of vehicle instead of drug, was included. Six days after the antigen injections, the mice were bled by cardiac puncture and the sera from each 5-mouse group pooled. The serum pools, following complement inactivation, were assayed for hemagglutinin content by standard procedures, utilizing a mixture of serial 2-fold saline dilutions of the test sera with 0.5 percent sheep red blood cell suspensions in plastic depression trays. Following incubation of the trays for 3 hours at 37° C., the hemagglutination patterns were graded.

[2] = test system: antibody (hemagglutinin) titer against sheep red blood cells; assay: Individual serum assay procedure (hemagglutinin titer); assay type: in vivo; details: Erythrocyte, ten daily doses, 10-mouse groups, read-out: Endpoint Dose (p <0.05), lowest dose significantly lowering antibody titer
Procedure: as §1, with “graded. […] The mice were bled as before, but the sera were titered individually rather than as a pool. Mean hemagglutinin values (log2)±S.E. were calculated for each 10-mouse group and p values (by Student's t Test), in comparison with the control group, were determined. […] The drugs were administered orally or subcutaneously in ten daily doses, commencing three days prior to red blood cell injection. Drugs were suspended in a vehicle composed of saline containing 0.125 percent methylcellulose and 0.2 percent nonionic emulsifying agent. Antibody (hemagglutinin) determinations were made seven days following a red blood cell injection.” for “graded.”

[3] = test system: adjuvant-induced arthritis (uninjected hind paw swelling, bone damage); assay: Adjuvant-induced arthritis test in rats; assay type: in vivo, rat (male Lewis-Wistar); details: 30 mg/kg/day oral; for % inhibition (uninjected paw volume): printed under Day 18, formula in footnote drawing
[4] = Day 11, TB control 2.02 ± 0.037
[5] = Day 14, TB control 2.69 ± 0.106
[6] = Day 16, TB control 3.26 ± 0.202
[7] = Day 18, TB control 3.65 ± 0.227

With `COc1ccc2nc(NC(=O)Nc3ccccc3)sc2c1` [1-(6-methoxy-2-benzothiazolyl)-3-phenylurea, reference compound] the “Percent Inhibition” value (GVH reaction; 12.5 mg/kg × 13, oral, illustrative calculation with Syn. Control 5.20) was 74% and the “Mg Spleen/g Body Wt. ± S.E.” value (GVH reaction; 12.5 mg/kg × 13, oral, p<0.01 vs GVH control (11.55 ± 1.01), groups of 5 mice) was 6.86 ± 0.80 mg spleen/g body wt.
`Brc1ccc(C2Nc3cccc4cccc(c34)N2)cc1` [2,3-dihydro-2-(p-bromophenyl)-1H-perimidine] showed a minimal effective dose [1] of 25 mg/kg.
For `Brc1ccc(C2=Nc3cccc4cccc(c34)N2)cc1Br.Cl` [2-(3,4-dibromophenyl)-1H-perimidine hydrochloride], the minimal effective dose [1] was 50 mg/kg.
Compound `Cl.Clc1ccc(C2=Nc3cccc4cccc(c34)N2)cc1Cl` [2-(3,4-dichlorophenyl)-1H-perimidine hydrochloride] has a minimal effective dose ([2]; sc, subcutaneous) of under 3.1 mg/kg, a minimal effective dose ([2]; oral) of under 3.1 mg/kg and a minimal effective dose [1] of 12.5 mg/kg.
Compound `Cl.Clc1ccc(C2=Nc3cccc4cccc(c34)N2)cc1Br` [2-(3-bromo-4-chlorophenyl)-1H-perimidine hydrochloride] has a minimal effective dose [1] of 50 mg/kg.
`Cl.Clc1cc(C2=Nc3cccc4cccc(c34)N2)ccc1Br` [2-(4-bromo-3-chlorophenyl)-1H-perimidine hydrochloride] was tested, and the minimal effective dose [1] was 50 mg/kg.
With `Brc1cccc(C2=Nc3cccc4cccc(c34)N2)c1.Cl` [2-(m-bromophenyl)-1H-perimidine hydrochloride] the minimal effective dose [1] was 100 mg/kg.
Work on `Cl.FC(F)(F)c1cccc(C2=Nc3cccc4cccc(c34)N2)c1` [2-(m-trifluoromethylphenyl)-1H-perimidine hydrochloride] yielded a minimal effective dose [1] of 100 mg/kg.
Work on `Cl.FC(F)(F)C(F)(F)Oc1ccc(C2=Nc3cccc4cccc(c34)N2)cc1` [2-(p-PENTAFLUOROETHOXYPHENYL)-1H-PERIMIDINE HYDROCHLORIDE] yielded a minimal effective dose [1] of 100 mg/kg.
With `F.FC(F)(F)Oc1ccc(C2=Nc3cccc4cccc(c34)N2)cc1` [2-(p-TRIFLUOROMETHOXYPHENYL)-1H-PERIMIDINE HYDROFLUORIDE] the minimal effective dose ([2]; oral) was 12.5 mg/kg and the minimal effective dose [1] was under 100 mg/kg.
For `Cl.FC(F)(F)c1ccc(C2=Nc3cccc4cccc(c34)N2)cc1` [2-(p-TRIFLUOROMETHYLPHENYL)-1H-PERIMIDINE HYDROCHLORIDE], the “Uninjected Paw Volume” value ([3]; Day 9, TB control 1.94 ± 0.028) was 1.93 ± 0.081, the “Uninjected Paw Volume” value [3, 4] was 1.95 ± 0.079 and the “Uninjected Paw Volume” value [3, 5] was 2.13 ± 0.148. The “Uninjected Paw Volume” value [3, 6] was 2.35 ± 0.233, the “Uninjected Paw Volume” value [3, 7] was 2.53 ± 0.39 and the “Gross observation of X-ray photos, bone damage in injected and uninjected paws” value ([3]; day 18, bone damage very obvious in TB control) was “no bone damage”. The “% inhibition (uninjected paw volume)” value [3] was 69%, the minimal effective dose ([2]; sc, subcutaneous) was under 1.6 mg/kg and the minimal effective dose ([2]; oral) was under 1.6 mg/kg. For the same compound, the “Percent Inhibition, GVH Series” value (GVH reaction; 1.6 mg/kg × 13, oral) was 78%, the “Mg Spleen/g mouse weight (mean + S.E.)” value (GVH reaction; 1.6 mg/kg × 13, oral, p <0.05, control 8.64 ± 1.10) was 5.66 ± 0.33 mg spleen/g mouse weight and the “Percent Inhibition, GVH Series” value (GVH reaction; 3.1 mg/kg × 13, oral) was 96%. For the same compound, the “Mg Spleen/g mouse weight (mean + S.E.)” value (GVH reaction; 3.1 mg/kg × 13, oral, p <0.01, control 8.64 ± 1.10) was 4.96 ± 0.31 mg spleen/g mouse weight, the “Percent Inhibition, GVH Series” value (GVH reaction; 6.2 mg/kg × 13, oral) was 77% and the “Mg Spleen/g mouse weight (mean + S.E.)” value (GVH reaction; 6.2 mg/kg × 13, oral, p <0.05, control 8.64 ± 1.10) was 5.67 ± 0.51 mg spleen/g mouse weight. For the same compound, the “Percent Inhibition, GVH Series” value (GVH reaction; 12.5 mg/kg × 13, oral) was 53%, the “Mg Spleen/g mouse weight (mean + S.E.)” value (GVH reaction; 12.5 mg/kg × 13, oral, control 8.64 ± 1.10) was 6.62 ± 1.17 mg spleen/g mouse weight and the “Percent Inhibition, GVH Series” value (GVH reaction; 25 mg/kg × 13, oral) was 101%. For the same compound, the “Mg Spleen/g mouse weight (mean + S.E.)” value (GVH reaction; 25 mg/kg × 13, oral, p <0.005, control 8.64 ± 1.10) was 4.75 ± 0.42 mg spleen/g mouse weight and the minimal effective dose [1] was 6.25 mg/kg.
Compound `Cl.FC(F)(F)Sc1ccc(C2=Nc3cccc4cccc(c34)N2)cc1` [2-(p-TRIFLUOROMETHYLTHIOPHENYL)-1H-PERIMIDINE HYDROCHLORIDE] has a minimal effective dose ([2]; oral) of 50 mg/kg and a minimal effective dose [1] of under 100 mg/kg.
Compound `Brc1ccc(C2=Nc3cccc4cccc(c34)N2)cc1.Cl` [2-(p-bromophenyl)-1H-perimidine hydrochloride] has a minimal effective dose ([2]; sc, subcutaneous) of under 3.1 mg/kg, a minimal effective dose ([2]; oral) of 25 mg/kg and a minimal effective dose [1] of 12.5 mg/kg.
In the case of `Brc1ccc(C2=Nc3cccc4cccc(c34)N2)cc1` [2-(p-bromophenyl)-1H-perimidine], the “Percent Inhibition, GVH Series” value (GVH reaction; 3.1 mg/kg × 13, subcutaneous) is reported as 19%, the “Mg Spleen/g mouse weight (mean + S.E.)” value (GVH reaction; 3.1 mg/kg × 13, subcutaneous, control 8.84 ± 0.72) is reported as 8.08 ± 0.66 mg spleen/g mouse weight and the “Percent Inhibition, GVH Series” value (GVH reaction; 6.2 mg/kg × 13, subcutaneous) is reported as 66%. The “Mg Spleen/g mouse weight (mean + S.E.)” value (GVH reaction; 6.2 mg/kg × 13, subcutaneous, p <0.01, control 8.84 ± 0.72) was 6.18 ± 0.39 mg spleen/g mouse weight, the “Percent Inhibition, GVH Series” value (GVH reaction; 12.5 mg/kg × 13, subcutaneous) was 79% and the “Mg Spleen/g mouse weight (mean + S.E.)” value (GVH reaction; 12.5 mg/kg × 13, subcutaneous, p <0.005, control 8.84 ± 0.72) was 5.64 ± 0.65 mg spleen/g mouse weight. For the same compound, the “Percent Inhibition, GVH Series” value (GVH reaction; 25 mg/kg × 13, subcutaneous) was 84%, the “Mg Spleen/g mouse weight (mean + S.E.)” value (GVH reaction; 25 mg/kg × 13, subcutaneous, p <0.001, control 8.84 ± 0.72) was 5.43 ± 0.41 mg spleen/g mouse weight and the “Percent Inhibition, GVH Series” value (GVH reaction; 50 mg/kg × 13, subcutaneous) was 102%. The “Mg Spleen/g mouse weight (mean + S.E.)” value (GVH reaction; 50 mg/kg × 13, subcutaneous, p <0.001, control 8.84 ± 0.72) was 4.70 ± 0.21 mg spleen/g mouse weight and the minimal effective dose [1] was 25 mg/kg.
`Clc1ccc(C2=Nc3cccc4cccc(c34)N2)cc1` [2-(p-chlorophenyl)-1H-perimidine] showed a minimal effective dose [1] of 100 mg/kg.
In the case of `Cn1cnc([N+](=O)[O-])c1Sc1ncnc2nc[nH]c12` [Azathioprine, reference compound], the minimal effective dose [1] is reported as 100 mg/kg.
`CC(C(=O)O)c1cccc(Oc2ccccc2)c1` (stereo not shown) [fenoprofen, reference compound] was tested, and the “Uninjected Paw Volume” value ([3]; Day 9, TB control 1.94 ± 0.028) was 1.97 ± 0.023, the “Uninjected Paw Volume” value [3, 4] was 2.11 ± 0.07 and the “Uninjected Paw Volume” value [3, 5] was 2.38 ± 0.099. The “Uninjected Paw Volume” value [3, 6] was 2.7 ± 0.107, the “Uninjected Paw Volume” value [3, 7] was 2.67 ± 0.128 and the “% inhibition (uninjected paw volume)” value [3] was 23%.
